Assay [1] concerns MCF-7 cells. Put plainly: Cell cycle analysis by flow cytometry. The assay is classed as cell-based, human. To be noted: 10 μM, 48 h. On the procedure:
Given that microtubule polymerization inhibitors are known to disrupt mitosis and induce cell cycle arrest, we evaluated the effect of compound 3g on cell cycle progression in MCF-7 cells by flow cytometry.
MCF-7 cells were seeded in 6-well plates and cultured overnight. Cells were then treated with compound 3g at concentrations of 0.1, 1, and 10 μM for 48 h. After treatment, cells were collected and fixed in 70% ethanol at 4 °C overnight. The fixed cells were washed and resuspended in staining buffer containing RNase A and propidium iodide (PI), followed by incubation in the dark at 37 °C for 30 min. DNA content was subsequently analyzed by flow cytometry.
Figure 6 Cell cycle arrest induced by compound 3g. (A) Compound 3g induced G2/M arrest in MCF-7 cells. MCF-7 cells were incubated with varying concentrations of compound 3g (0.1, 1, and 10 μM) for 48 h. The percentages of cells in different phases of the cell cycle were analyzed by FlowJo 10.8.1. (B) Histograms display the percentage of cell cycle distribution after treatment with compound 3g. Data are expressed as mean ± standard deviation from three independent experiments. Statistical significance was determined by one-way ANOVA followed by Tukey’s post hoc test.
In general terms: In flow cytometry, cells or beads pass a laser one at a time.

The next assay has as its system MDA-MB-231 cells. The experiment in a line: CCK-8 antiproliferative assay, MDA-MB-231. The assay is classed as cell-based. To be noted: Homo sapiens, cell viability (CCK-8), 48 h. The procedure:
To evaluate the anticancer potential of the synthesized compounds, a panel of six human and murine cancer cell lines representing different tissue origins was selected, including MCF-7 (human breast adenocarcinoma), MDA-MB-231 (human triple-negative breast cancer), A549 (human non-small cell lung cancer), HeLa (human cervical cancer), A375 (human melanoma), and B16-F10 (murine melanoma) (Table 2). […] DMSO was used as the vehicle control, and all experiments were performed in triplicate to ensure reproducibility.
Human breast cancer cells (MCF-7), human lung cancer cells (A549), human cervical cancer cells (HeLa), human triple-negative breast cancer cells (MDA-MB-231), and human malignant melanoma cells (A375) were cultured in DMEM. Mouse melanoma cells (B16F10) were maintained in RPMI-1640 medium. All media were supplemented with 10% fetal bovine serum and 1% penicillin-streptomycin (Life Technologies, Carlsbad, CA, USA) and maintained at 37 °C in a humidified atmosphere with 5% CO2.
The cytotoxicity of the test compounds was evaluated against MCF-7, A549, HeLa, MDA-MB-231, A375, and B16F10 using the CCK-8 assay. Cells were seeded into 96-well plates at a density of 5000 cells/well. After removing the medium, 100 μL of medium with 0.1% DMSO containing test compounds at different concentrations was added to each well and incubated at 37 °C for another 48 h. The CCK-8 solution was added and incubated for another 1 h, and then, the absorbance was detected with a microplate reader at a wavelength of 450 nm. The IC50 values were calculated by nonlinear regression analysis using GraphPad Prism 8.0.2. All the experiments were repeated at least three times.

The subject of assay [2] is MCF-7 cells. The experiment in a line: Annexin V-FITC/PI apoptosis assay. The assay is classed as cell-based, human. To be noted: 48 h. On the procedure:
Given that mitotic arrest induced by tubulin polymerization inhibitors is commonly associated with apoptosis, an Annexin V-FITC/propidium iodide (PI) assay was conducted to evaluate the pro-apoptotic effect of compound 3g in MCF-7 cells.
MCF-7 cells were seeded into 6-well plates and cultured overnight. After treating with compound 3g (0.1, 1, and 10 μM) for 48 h, cells were harvested and suspended in binding buffer containing annexin V-FITC (0.5 mg/mL) and PI (0.5 mg/mL). After that, samples were incubated for 20 min in the dark and analyzed with a flow cytometer.
Figure 7 Effects of compound 3g on apoptosis in MCF-7 cells. (A) Apoptosis induction by compound 3g in MCF-7 cells. Cells were treated with increasing concentrations of 3g (0.1, 1, and 10 μM) for 48 h, followed by Annexin V-FITC/PI staining and flow cytometric analysis. Cell populations were categorized as necrotic (upper left quadrant), late apoptotic (upper right), viable (lower left), and early apoptotic (lower right). (B) Quantification of apoptotic populations. Bar graphs show the percentage of cells in each apoptotic stage after treatment. Data are presented as mean ± SD from three independent experiments. Statistical significance was determined by one-way ANOVA followed by Tukey’s post hoc test. TEXT PRINTED IN THE PICTURE: (A) Control: Q1(20.37%); Q2(15.42%); Q4(59.96%); Q3(4.25%) | (A) no label printed: Q1(8.46%) (0.1 μM); Q2(23.10%) (0.1 μM); Q4(59.68%) (0.1 μM); Q3(8.75%) (0.1 μM); Q1(8.98%) (1 μM); Q2(29.15%) (1 μM); Q4(50.67%) (1 μM); Q3(11.19%) (1 μM); Q1-UL(12.21%) (10 μM); Q1-UR(40.63%) (10 μM); Q1-LL(34.55%) (10 μM); Q1-LR(12.61%) (10 μM) DOUBTS OF THE COPYIST ABOUT THIS PICTURE: The picture prints no label for the treated substance; only the concentrations 0.1 μM, 1 μM and 10 μM are printed over the plots, so they are given as conditions. / Control is untreated cells rather than a substance; it is listed because quadrant percentages are printed with that name. / The quadrant print is very small, so 3, 5, 6, 8 and 9 cannot be told apart with certainty in any of these values. / Control: Q1 20.37%, Q2 15.42%, Q4 59.96%, Q3 4.25% are best readings. / 0.1 μM: Q1 8.46%, Q2 23.10%, Q4 59.68%, Q3 8.75% are best readings. / 1 μM: Q1 8.98%, Q2 29.15%, Q4 50.67%, Q3 11.19% are best readings. / 10 μM: Q1-UL 12.21%, Q1-UR 40.63%, Q1-LL 34.55%, Q1-LR 12.61% are best readings.

SMILES strings stand for the structures.

One may read the IC50 as the concentration at which inhibition is half-maximal. Low readings indicate greater potency in that assay, high ones weaker potency in that assay. For `COc1cc(-n2ccc3ccc(-c4ccc(C)c(C#N)c4)cc32)cc(OC)c1OC` [3g, 2-methyl-5-(1-(3,4,5-trimethoxyphenyl)-1H-indol-6-yl)benzonitrile], the “cells in the G2/M phase” value in the assay on MCF-7 cells [1] is reported as “marked accumulation”. This compound also had an IC50 with MDA-MB-231 cells of 1610 ± 4 nM. In the assay on MCF-7 cells [2] (10 μM), the apoptosis induction entry is “significantly inducing apoptosis”. Besides, the apoptotic cell populations entry in the assay on MCF-7 cells [2] (0.1, 1 and 10 μM) is “dose-dependent increase”. Also, the viability at 0.1 µM with MCF-7 cells [2] (Homo sapiens, MCF7, 0.1 μM, read-out: viable cells (lower left quadrant, Q4)) was found to be 59.7%. Also, in the assay on MCF-7 cells [2] (Homo sapiens, MCF7, 1 μM, read-out: viable cells (lower left quadrant, Q4)), the viability at 1 µM came to 50.7%. The viability at 10 µM in the assay on MCF-7 cells [2] (Homo sapiens, MCF7, 10 μM, read-out: viable cells (lower left quadrant, Q1-LL)) was found to be 34.5%.

Source of the values: article PMC12693167, “Design, Synthesis and Anticancer Activity of 6-Substituted-1-(3,4,5-trimethoxyphenyl)-1H-indole Against Tubulin Polymerisation” (Molecules, 2025).
